Strand notation (5' to 3'): a small letter for the sugar, then the base; units joined by * are phosphorothioate-linked, units joined directly phosphodiester-linked; [ ] holds rarer units or linkages, { } end groups; capitals alone tell only the bases. e = 2'-O-(2-methoxyethyl) (MOE); k = constrained ethyl (cEt); [5mC] = 5-methylcytosine; d = 2'-deoxy (DNA); m = 2'-O-methyl
Tested on: Yap1 mRNA
Assay: Antisense inhibition of human Yap1 in SNU-449 cells by modified oligonucleotides, single dose (Example 5, RTS36584)
Type: cell-based
Details: Table 39; SNU-449 cells, 10,000 cells per well, free uptake, 2,000 nM oligonucleotide, approx. 48 hours; RTS36584; normalized to RIBOGREEN; Yap1 mRNA relative to untreated control
Summary of the method: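 Free uptake, 2,000 nM, ~48 h, SNU-449 at 10,000 cells/well. Read-out: qRT-PCR (RTS36584), RIBOGREEN-normalised, expressed as % UTC. Asterisk = oligo hits amplicon region.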

Substance | YAP1 (% UTC)
1198406 (kG*d[5mC]*dT*dT*dT*dG*dG*dA*dA*dG*dA*kT*e[5mC]*kT*eG*kA; antisense) [Compound 1198406] | 17
1198403 (kT*dT*dG*dG*dA*dA*dG*dA*dT*d[5mC]*dT*kG*eA*kA*eA*k[5mC]) [Compound 1198403] | 54
1198437 (kT*dT*dT*dA*dT*dG*dT*dA*dA*dT*dA*kT*eT*kG*e[5mC]*kA; antisense) [Compound 1198437] | 63
1198383 (kA*dT*dT*dA*dG*dA*dG*dT*dA*dT*dG*kT*eG*kG*e[5mC]*kA; antisense) [Compound 1198383] | 31

Same assay, conditions: Table 40 (separate experiment); SNU-449 cells, 10,000 cells per well, free uptake, 2,000 nM oligonucleotide, approx. 48 hours; RTS36584; normalized to RIBOGREEN; Yap1 mRNA relative to untreated control

Substance | YAP1 (% UTC)
1198795 (antisense kT*eA*kA*dG*dG*dT*dT*dT*d[5mC]*d[5mC]*d[5mC]*dA*eG*eA*kT*kT) [Compound 1198795] | 43
1198781 (antisense kG*eT*kA*dA*dT*dA*dT*dT*dG*d[5mC]*dA*dA*eT*e[5mC]*kT*kG) [Compound 1198781] | 25

Same assay, conditions: Table 41; SNU-449 cells, 10,000 cells per well, free uptake, 2,000 nM modified oligonucleotide, approximately 48 hours; RTS36584; normalized to RIBOGREEN; Yap1 mRNA relative to untreated control cells

Substance | YAP1 (% UTC)
1198676 (antisense kT*k[5mC]*dA*dG*dA*dT*dT*dT*dA*dG*dG*dA*kT*eG*k[5mC]*eA) [Compound 1198676] | 52
1198659 (antisense kT*kT*dA*dA*dG*d[5mC]*dA*d[5mC]*dT*dT*dT*dT*kA*e[5mC]*kA*eT) [Compound 1198659] | 58
1198772 (k[5mC]*eT*k[5mC]*dT*dT*dA*dT*dA*dT*dG*dG*dT*eT*eT*kT*kG; antisense) [Compound 1198772] | 41
1198663 (antisense k[5mC]*kT*dT*dT*dG*dG*dA*dA*dG*dA*dT*d[5mC]*kT*eG*kA*eA) [Compound 1198663] | 76
1198655 (k[5mC]*kA*d[5mC]*dT*dT*dT*dT*dA*d[5mC]*dA*dT*dT*kA*eG*kG*eA; antisense) [Compound 1198655] | 30
1198635 (kA*kT*dG*dG*dA*dA*dA*dT*dT*dG*dT*d[5mC]*kT*e[5mC]*kA*eT; antisense) [Compound 1198635] | 57

Same assay, conditions: Table 42 (separate experiment); SNU-449 cells, 10,000 cells per well, free uptake, 2,000 nM modified oligonucleotide, approximately 48 hours; RTS36584; normalized to RIBOGREEN; Yap1 mRNA relative to untreated control cells

Substance | YAP1 (% UTC)
1198199 (kA*kT*dT*dG*dT*d[5mC]*dT*d[5mC]*dA*dT*dG*e[5mC]*e[5mC]*eT*kT*kA; antisense) [Compound 1198199] | 38
1198198 (kT*kG*dT*d[5mC]*dT*d[5mC]*dA*dT*dG*d[5mC]*d[5mC]*eT*eT*eA*kT*kA; antisense) [Compound 1198198] | 29
1198684 (antisense kA*kA*d[5mC]*dT*d[5mC]*dT*dT*dA*dT*dA*dT*dG*kG*eT*kT*eT) [Compound 1198684] | 75
1095483 (antisense k[5mC]*kA*d[5mC]*dT*dG*dA*dG*dG*dT*dA*dT*dA*kA*e[5mC]*kT*eG) [Compound 1095483] | 101

Same assay, conditions: Table 43 experiment; SNU-449 cells, 10,000 cells per well, free uptake, 2,000 nM, approximately 48 hours; RTS36584; Yap1 mRNA normalized to RIBOGREEN, relative to untreated control cells

Substance | YAP1 (% UTC)
1198245 (k[5mC]*kA*dG*dA*dT*dT*dT*dA*dG*dG*dA*eT*eG*e[5mC]*kA*kT; antisense) [Compound 1198245] | 46
1198218 (kA*kG*dG*dT*dA*dT*dA*dA*d[5mC]*dT*dG*eG*eG*e[5mC]*kA*kA; antisense) [Compound 1198218] | 40
1198280 (kA*k[5mC]*dT*dA*dA*dG*dT*dA*dA*dG*dG*eT*eT*eT*k[5mC]*k[5mC]; antisense) [Compound 1198280] | 40
1198464 (antisense kA*kT*dA*dT*dG*dG*dA*dA*dA*dT*dT*eG*kT*e[5mC]*kT*e[5mC]) [Compound 1198464] | 41

Same assay, conditions: Table 44 experiment; SNU-449 cells, 10,000 cells per well, free uptake, 2,000 nM, approximately 48 hours; RTS36584; Yap1 mRNA normalized to RIBOGREEN, relative to untreated control cells

Substance | YAP1 (% UTC)
1198490 (antisense kT*kT*dT*dG*dG*dA*dA*dG*dA*dT*d[5mC]*eT*kG*eA*kA*eA) [Compound 1198490] | 53
1198531 (k[5mC]*kT*dT*dT*dA*dA*dA*dG*dT*dG*dT*eA*kT*eG*kT*e[5mC]; antisense) [Compound 1198531] | 21
1198478 (antisense kA*kA*d[5mC]*dA*d[5mC]*dT*dG*dA*dG*dG*dT*eA*kT*eA*kA*e[5mC]) [Compound 1198478] | 60

Same assay, conditions: Table 45; Yap1 mRNA as percent of untreated control, SNU-449 cells, single dose

Substance | YAP1 (% UTC)
1198937 (k[5mC]*kA*dG*dA*dT*dT*dT*dA*dG*dG*dA*kT*dG*k[5mC]*dA*kT; antisense) [Compound 1198937] | 48
1198971 (k[5mC]*kT*dA*dA*dG*dT*dA*dA*dG*dG*dT*kT*dT*k[5mC]*d[5mC]*k[5mC]; antisense) [Compound 1198971] | 31
1198921 (kT*kT*dA*dA*dG*d[5mC]*dA*d[5mC]*dT*dT*dT*kT*dA*k[5mC]*dA*kT; antisense) [Compound 1198921] | 89
1198919 (A_{ks}G^{m}C_{ds}A_{ds}^{m}C_{ds}T_{ds}T_{ds}T_{ds}T_{ds}A_{ds}^{m}C_{ds}A_{ks}T_{ds}T_{ks}A_{ds}G_{k}; modified gapmer, phosphorothioate, as printed in the source, key not given here) [Compound 1198919] | 60

Same assay, conditions: Table 46; Yap1 mRNA as percent of untreated control, SNU-449 cells, single dose

Substance | YAP1 (% UT)
1198888 (kA*kG*dA*d[5mC]*dT*dA*dA*dG*dT*dA*dA*kG*eG*kT*eT*kT; antisense) [Compound 1198888] | 51
1198870 (kT*kA*dT*dG*dT*dA*dA*dT*dA*dT*dT*kG*e[5mC]*kA*eA*kT; antisense) [Compound 1198870] | 86

Same assay, conditions: Table 48; Yap1 mRNA level relative to untreated control; modified oligonucleotides targeting SEQ ID NO.: 1 and 2

Substance | YAP1 (% UT)
1198292 (kA*kT*kA*dT*dG*dG*dA*dA*dA*dT*dT*dG*kT*e[5mC]*kT*e[5mC]; antisense) [Compound 1198292] | 58
1197205 (antisense kG*kA*k[5mC]*dA*dA*d[5mC]*dT*d[5mC]*dT*dT*dA*dT*dA*kT*kG*kG) [Compound 1197205] | 67
1197201 (antisense kT*k[5mC]*kT*dT*dA*dT*dA*dT*dG*dG*dT*dT*dT*kT*kG*kT) [Compound 1197201] | 46
1198325 (kA*kG*kG*dA*dT*dG*d[5mC]*dA*dT*dG*dG*dT*kT*eT*kT*eT; antisense) [Compound 1198325] | 34

Same assay, conditions: Table 49; Yap1 mRNA level relative to untreated control; modified oligonucleotides targeting SEQ ID NO.: 1 and 2

Substance | YAP1 (% UT)
1198575 (antisense kT*kT*kG*dG*dA*dA*dG*dA*dT*d[5mC]*dT*dG*kA*kA*kA*e[5mC]) [Compound 1198575] | 94
1198581 (antisense kA*kG*kT*dG*d[5mC]*dT*dT*dT*dG*dG*dA*dA*kG*kA*kT*e[5mC]) [Compound 1198581] | 42
1198349 (kA*kT*kG*dT*dA*dA*dT*dA*dT*dT*dG*d[5mC]*kA*eA*kT*e[5mC]) [Compound 1198349] | 85
1198569 (antisense CACTTTTACATTAGGA; chemistry not fully specified) [Compound 1198569] | 14
1095567 (antisense k[5mC]*kA*k[5mC]*dT*dG*dA*dG*dG*dT*dA*dT*dA*kA*e[5mC]*kT*eG) [Compound 1095567] | 92
1198361 (kT*kA*kA*dG*dG*dT*dT*dT*d[5mC]*d[5mC]*d[5mC]*dA*kG*eA*kT*eT; antisense) [Compound 1198361] | 39
1198303 (kG*kG*kT*dA*dT*dA*dA*d[5mC]*dT*dG*dG*dG*k[5mC]*eA*kA*eA; antisense) [Compound 1198303] | 27

Same assay, conditions: Table 50; Yap1 mRNA remaining as percent of untreated control (UT), SNU-449 cells, single dose

Substance | YAP1 (% UT)
1197231 (antisense kA*kT*kG*dG*mA*dA*dA*dT*dT*dG*dT*d[5mC]*dT*k[5mC]*kA*kT) [Compound 1197231] | 50

Same assay, conditions: Table 52; Yap1 mRNA, modified oligonucleotides targeting SEQ ID NO: 1 and 2

Substance | YAP1 (% UT)
1200830 (kT*kT*kA*dG*dG*mA*dT*dG*d[5mC]*dA*dT*dG*dG*kT*kT*kT; antisense) [Compound 1200830] | 50
1200809 (k[5mC]*kA*k[5mC]*dT*dG*mA*dG*dG*dT*dA*dT*dA*dA*k[5mC]*kT*kG; antisense) [Compound 1200809] | 69
1200845 (k[5mC]*kA*kA*d[5mC]*dT*mC*dT*dT*dA*dT*dA*dT*dG*kG*kT*kT; antisense) [Compound 1200845] | 100
1200814 (kA*k[5mC]*kT*dT*dT*mU*dA*d[5mC]*dA*dT*dT*dA*dG*kG*kA*kA; antisense) [Compound 1200814] | 73

Same assay, conditions: Yap1 mRNA, percent of untreated control; modified oligonucleotides targeting SEQ ID NO: 1 and 2; Table 47

Substance | YAP1 (% UT)
1198878 (kT*kT*dT*dA*dA*dA*dG*dT*dG*dT*dA*kT*eG*kT*e[5mC]*kA; antisense) [Compound 1198878] | 42
1009324 (kA*kG*kT*dA*dT*dG*dT*dG*dG*d[5mC]*dA*dA*dT*kA*kA*kT; antisense) [Compound 1009324] | 27
1197187 (antisense kG*kG*kA*dA*dG*dA*dT*d[5mC]*dT*dG*dA*dA*dA*k[5mC]*kT*k[5mC]) [Compound 1197187] | 24

Source: patent publication US11214803B2, “Modulators of YAP1 expression” (Ionis Pharmaceuticals, Inc., priority 2019, dated 2022)
